Measured values taken from US8329717B2, “Pyrimidine derivatives and their use for controlling undesired plant growth” (Bayer Cropscience AG, priority 2008, dated 2012).

Columns and labels:
Echinochloa crus-galli [1] = experiment: Post-emergence herbicidal effect; format: in vivo; settings: Dosage 320 g/ha, one-leaf stage, visual scoring after ca. 3 weeks vs untreated controls, 100% = plants have died
Experimental: (§1) The following abbreviations are used in the tables below: [table] 2. Post-Emergence Herbicidal Effect and Crop Plant Compatibility Seeds of monocotyledonous or dicotyledonous weed plants or crop plants are planted in wood-fiber pots in sandy loam, covered with earth and grown in a greenhouse under good growth conditions. 2 to 3 weeks after sowing, the test plants are treated in the one-leaf stage. The compounds according to the invention, formulated in the form of wettable powders (WP) or as emulsion concentrates (EC), are then sprayed onto the green plant parts as aqueous suspension or emulsion at a water application rate of 600 to 800 l/ha (converted) with the addition of 0.2% of wetting agent. The dosage of the compounds according to the invention is given in grams per hectare. After ca. 3 weeks' standing time of the test plants in the greenhouse under optimum growth conditions, the effect of the preparations is scored visually in comparison with untreated controls (herbicidal effect in percent (%): 100% effect=plants have died, 0% effect=as control plants).

Lolium multiflorum [2] = experiment: Post-emergence herbicidal effect; format: in vivo; settings: Dosage 320 g/ha, one-leaf stage, visual scoring after ca. 3 weeks vs untreated controls, 100% = plants have died
Experimental: as §1

Matricaria inodora [3] = experiment: Post-emergence herbicidal effect; format: in vivo; settings: Dosage 320 g/ha, one-leaf stage, visual scoring after ca. 3 weeks vs untreated controls, 100% = plants have died
Experimental: as §1

Stellaria media [4] = experiment: Post-emergence herbicidal effect; format: in vivo; settings: Dosage 320 g/ha, one-leaf stage, visual scoring after ca. 3 weeks vs untreated controls, 100% = plants have died
Experimental: as §1

Veronica persica [5] = experiment: Post-emergence herbicidal effect; format: in vivo; settings: Dosage 320 g/ha, one-leaf stage, visual scoring after ca. 3 weeks vs untreated controls, 100% = plants have died
Experimental: as §1

Alopecurus myosuroides [6] = experiment: Pre-emergence herbicidal effect; format: in vivo; settings: Dosage 320 g/ha, visual scoring after 3 weeks vs untreated controls, 100% = plants have died
Procedure, shortened: (§2)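 Pre-emergence, greenhouse. Sandy loam, seeds covered with earth; WP/EC formulations in water (600–800 l/ha, +0.2% wetting agent) applied to soil surface, g/ha. Read-out: visual % effect at 3 weeks vs untreated.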

Amaranthus retroflexus [7] = experiment: Pre-emergence herbicidal effect; format: in vivo; settings: Dosage 320 g/ha, visual scoring after 3 weeks vs untreated controls, 100% = plants have died
Procedure, shortened: as §2

Cyperus esculentus = experiment: Pre-emergence herbicidal effect; format: in vivo; settings: Dosage 320 g/ha, visual scoring after 3 weeks vs untreated controls, 100% = plants have died
Procedure, shortened: as §2

Echinochloa crus-galli [8] = experiment: Pre-emergence herbicidal effect; format: in vivo; settings: Dosage 320 g/ha, visual scoring after 3 weeks vs untreated controls, 100% = plants have died
Procedure, shortened: as §2

Lolium multiflorum [9] = experiment: Pre-emergence herbicidal effect; format: in vivo; settings: Dosage 320 g/ha, visual scoring after 3 weeks vs untreated controls, 100% = plants have died
Procedure, shortened: as §2

Matricaria inodora [10] = experiment: Pre-emergence herbicidal effect; format: in vivo; settings: Dosage 320 g/ha, visual scoring after 3 weeks vs untreated controls, 100% = plants have died
Procedure, shortened: as §2

Setaria viridis [11] = experiment: Pre-emergence herbicidal effect; format: in vivo; settings: Dosage 320 g/ha, visual scoring after 3 weeks vs untreated controls, 100% = plants have died
Procedure, shortened: as §2

Stellaria media [12] = experiment: Pre-emergence herbicidal effect; format: in vivo; settings: Dosage 320 g/ha, visual scoring after 3 weeks vs untreated controls, 100% = plants have died
Procedure, shortened: as §2

Veronica persica [13] = experiment: Pre-emergence herbicidal effect; format: in vivo; settings: Dosage 320 g/ha, visual scoring after 3 weeks vs untreated controls, 100% = plants have died
Procedure, shortened: as §2

Viola tricolor [14] = experiment: Pre-emergence herbicidal effect; format: in vivo; settings: Dosage 320 g/ha, visual scoring after 3 weeks vs untreated controls, 100% = plants have died
Procedure, shortened: as §2

Alopecurus myosuroides [15] = experiment: Post-emergence herbicidal effect; format: in vivo; settings: Dosage 320 g/ha, one-leaf stage, visual scoring after ca. 3 weeks vs untreated controls, 100% = plants have died
Experimental: as §1

Amaranthus retroflexus [16] = experiment: Post-emergence herbicidal effect; format: in vivo; settings: Dosage 320 g/ha, one-leaf stage, visual scoring after ca. 3 weeks vs untreated controls, 100% = plants have died
Experimental: as §1

[17] = logp (HCOOH), chemicophysical data
Abutilon theophrasti [18] = experiment: Pre-emergence herbicidal effect; format: in vivo; settings: Dosage 320 g/ha, visual scoring after 3 weeks vs untreated controls, 100% = plants have died
Procedure, shortened: as §2

Avena fatua = experiment: Pre-emergence herbicidal effect; format: in vivo; settings: Dosage 320 g/ha, visual scoring after 3 weeks vs untreated controls, 100% = plants have died
Procedure, shortened: as §2

Polygonum convolvulus [19] = experiment: Pre-emergence herbicidal effect; format: in vivo; settings: Dosage 320 g/ha, visual scoring after 3 weeks vs untreated controls, 100% = plants have died
Procedure, shortened: as §2

PHBPU = experiment: Post-emergence herbicidal effect; format: in vivo; settings: Dosage 320 g/ha, one-leaf stage, visual scoring after ca. 3 weeks vs untreated controls, 100% = plants have died
Experimental: as §1, with “2.” for “The following abbreviations are used in the tables below: [table] 2.”

Abutilon theophrasti [20] = experiment: Post-emergence herbicidal effect; format: in vivo; settings: Dosage 320 g/ha, one-leaf stage, visual scoring after ca. 3 weeks vs untreated controls, 100% = plants have died
Experimental: as §1

Polygonum convolvulus [21] = experiment: Post-emergence herbicidal effect; format: in vivo; settings: Dosage 320 g/ha, one-leaf stage, visual scoring after ca. 3 weeks vs untreated controls, 100% = plants have died
Experimental: as §1

Viola tricolor [22] = experiment: Post-emergence herbicidal effect; format: in vivo; settings: Dosage 320 g/ha, one-leaf stage, visual scoring after ca. 3 weeks vs untreated controls, 100% = plants have died
Experimental: as §1

Setaria viridis [23] = experiment: Post-emergence herbicidal effect; format: in vivo; settings: Dosage 320 g/ha, one-leaf stage, visual scoring after ca. 3 weeks vs untreated controls, 100% = plants have died
Experimental: as §1

Row | Compound | Post-emergence herbicidal effect ECHCG (Echinochloa crus-galli [1]) | Post-emergence herbicidal effect LOLMU (Lolium multiflorum [2]) | Post-emergence herbicidal effect MATIN (Matricaria inodora [3]) | Post-emergence herbicidal effect STEME (Stellaria media [4]) | Post-emergence herbicidal effect VERPE (Veronica persica [5]) | Pre-emergence herbicidal effect ALOMY (Alopecurus myosuroides [6]) | Pre-emergence herbicidal effect AMARE (Amaranthus retroflexus [7]) | Pre-emergence herbicidal effect ECHCG (Echinochloa crus-galli [8]) | Pre-emergence herbicidal effect LOLMU (Lolium multiflorum [9]) | Pre-emergence herbicidal effect MATIN (Matricaria inodora [10]) | Pre-emergence herbicidal effect SETVI (Setaria viridis [11]) | Pre-emergence herbicidal effect STEME (Stellaria media [12]) | Pre-emergence herbicidal effect VERPE (Veronica persica [13]) | Pre-emergence herbicidal effect VIOTR (Viola tricolor [14]) | Post-emergence herbicidal effect ALOMY (Alopecurus myosuroides [15]) | Post-emergence herbicidal effect AMARE (Amaranthus retroflexus [16]) | Pre-emergence herbicidal effect AVEFA (Avena fatua) | Pre-emergence herbicidal effect POLCO (Polygonum convolvulus [19]) | Post-emergence herbicidal effect PHBPU (PHBPU) | Post-emergence herbicidal effect ABUTH (Abutilon theophrasti [20]) | further results
1 | Cc1nc(NC2CCc3ccccc32)nc(N)c1C#N (racemic) [Example 1.24] | 90% | 100% | 80% | 100% | 90% |  |  |  |  |  |  |  |  |  |  |  |  |  |  |  | 
2 | Cc1nc(NC2CCOc3ccccc32)nc(N)c1C#N (racemic) [Example 1.25] | 90% | 95% |  | 100% | 95% | 100% | 100% | 100% | 100% | 100% | 100% | 100% | 100% | 90% | 90% | 90% |  |  |  |  | Pre-emergence herbicidal effect CYPES (Cyperus esculentus): 100%; logp (HCOOH) ([17]; HCOOH): solid, m.p.: 213.3° C.; logp (HCOOH): 1.55; 1H-NMR (CDCl3, 400 MHZ, δ in ppm): 2.10
3 | Cc1nc(N[C@@H]2CCOc3c(F)cccc32)nc(N)c1C#N [Example 1.26] | 90% | 90% | 80% | 90% | 95% | 100% | 100% | 100% | 100% | 100% | 100% | 100% | 100% | 100% | 85% | 85% | 90% | 90% | 90% | 80% | Pre-emergence herbicidal effect ABUTH (Abutilon theophrasti [18]): 80%; Post-emergence herbicidal effect POLCO (Polygonum convolvulus [21]): 80%; Post-emergence herbicidal effect VIOTR (Viola tricolor [22]): 85%
4 | CC[C@H]1Cc2ccc(C)cc2[C@@H]1Nc1nc(C)c(C#N)c(N)n1 [Example 1.96] | 85% | 90% |  | 95% | 85% | 100% | 100% | 100% | 100% | 100% | 100% | 100% | 100% | 100% | 80% | 85% | 80% | 100% | 90% | 85% | Post-emergence herbicidal effect POLCO (Polygonum convolvulus [21]): 85%; Post-emergence herbicidal effect SETVI (Setaria viridis [23]): 85%; Post-emergence herbicidal effect VIOTR (Viola tricolor [22]): 85%
5 | Cc1ccc2c(c1)[C@H](Nc1ncc(C#C[Si](C)(C)C)c(N)n1)[C@@H](C)C2 [Example 1.98, N2-[(1R,2S)-2,6-Dimethyl-2,3-dihydro-1H-inden-1-yl]-5-[(trimethylsilyl)ethynyl]-pyrimidine-2,4-diamine] |  |  |  |  |  |  | 80% |  |  | 80% | 80% | 100% | 100% | 100% |  |  |  |  |  |  | Pre-emergence herbicidal effect CYPES (Cyperus esculentus): 100%; chromatographic logP ([17]; HCOOH (formic acid)): 2.28
6 | Cc1ccc2c(c1)[C@H](Nc1nc(C)c([N+](=O)[O-])c(N)n1)[C@@H](C)C2 [Example 1.120] | 100% |  | 80% | 85% | 90% | 100% | 100% | 100% | 90% | 100% | 100% | 100% | 100% | 100% |  | 90% | 80% | 100% | 100% | 90% | Post-emergence herbicidal effect POLCO (Polygonum convolvulus [21]): 80%; Post-emergence herbicidal effect SETVI (Setaria viridis [23]): 85%; Post-emergence herbicidal effect VIOTR (Viola tricolor [22]): 90%
